Test results published in patent US20180368393A1, “PRE- AND POST-STORAGE STRESS RESPONSE CONDITIONING” (CPSI HOLDINGS LLC, priority 2017, published 2018).
“Also recorded” adds a separate entry of the source. Where a SMILES comes first, the peptide text is derived from it. The star is where a group is joined. Cbz = O=C(OCc1ccccc1)*; CH2F = FC*

What was measured:
[1] = system: endothelial and smooth muscle cells; assay: Summary of Examples 2-3: post-thaw survival of endothelial and smooth muscle cells (Calcein-AM assay); assay type: cell-based, human
Experimental: For pre-freeze (PF), post-warming (PW) and pre/post (P/P) conditioning studies, molecular modulation agents targeting inhibition of apoptosis (Caspase inhibitor IV, 8, 9 and a combination of Caspases 8 and 9), reduction of free-radical damage (resveratrol and NAC), and activation of the unfolded protein response (salubrinal) were employed as supplements in the media 1 hour prior to freezing (pre-freeze condition) or for 1 day following thawing and CPA removal from frozen samples (post-warming condition).
(§1) The device was used to thaw the samples, which were frozen in situ in monolayers in standard 96-well tissue culture plates. Samples were thawed from less than −170° C. to about 4° C. in the 96-well plate format in about 5 mins in a dry clean (“sterile”) environment.
The P/P regime was followed by PW using Caspase 8 inhibition or NAC inhibition.

human endothelial cells = assay: Human endothelial cell monolayer survival and repopulation following cryopreservation (Calcein-AM assay); assay type: cell-based; conditions: for post-thaw viability: P/P conditioning, U10 and U5G10 CP solutions vs matched non-treated samples; for day 1 survival increase over non-treated samples: U10G10
Experimental: A series of cryopreservation experiments was conducted on human endothelial and smooth muscle cell suspensions and monolayers to assess the performance of four (4) commercially available cryopreservation solutions: DP6, VS55, VS83, and M22, as well as nine (9) additional solutions: […] Eurocollins (EC) solution was included as a negative control, i.e., no cryoprotective agent (CPA) control, while media+10% DMSO ([…]) is a typical solution (10% DMSO) used in standard controlled rate cryopreservation protocols known to the skilled individual. Unisol is representative of the class of intracellular-like or intracellular-type solutions/media, whereas EC solution and culture media are representative of the class of extracellular-like or extracellular-type solutions/media. Other studies presented herein provide additional examples of intracellular- and extracellular-like solutions; other intracellular- and extracellular-like solutions are similarly useful and are known to those of skill in the art. FIG. 1 illustrates the results of an assessment of human endothelial cell survival following preservation. Monolayers of endothelial cells were frozen or vitrified and thawed in the indicated solutions (control, Uni, […], DP6, VS55, VS83, and […]). Following thawing, samples were diluted in culture media, placed into culture and assessed for viability at 1 day (24 hours) post-thaw and following seven (7) days of recovery using the Calcein-AM assay. […] The Uni and U10 conditions provided outcomes exceeding that of the VS55, VS83 and […] conditions. Therefore, subsequent studies (see, e.g., FIG. 2) focused on Unisol-based solutions with various CPAs and concentrations, in addition to the DP6 commercial cryopreservation solution. […] Monolayers of endothelial cells were frozen or vitrified and thawed in the indicated solutions. […] For pre-freeze (PF), post-warming (PW) and pre/post (P/P) conditioning studies, molecular modulation agents targeting inhibition of apoptosis (Caspase inhibitor IV, 8, 9 and a combination of Caspases 8 and 9), reduction of free-radical damage (resveratrol and NAC), and activation of the unfolded protein response (salubrinal) were employed as supplements in the media 1 hour prior to freezing (pre-freeze condition) or for 1 day following thawing and CPA removal from frozen samples (post-warming condition). Based on outcomes in the studies in Example 1, PF, PW and P/P conditioning were examined in Examples 2-3 using a series of Unisol-based solutions (Uni, U5, U10, U20, UG10, U5G10 and U10G10). […] Patent Application Publication No. US 2016/0097583 A1 (Ser. No. 14/876,087), which is incorporated by reference in its entirety as though fully set forth herein. The freeze and thaw process was slightly modified relative to the disclosure of U.S. Patent Application Publication No. US 2016/0097583 A1 by the addition of a 0.090 inch aluminum plate inserted into the bottom of the 96 well plate to aid in increasing cooling and heating uniformity throughout the plate, thereby reducing the well-to-well variability within the samples. The device was used to thaw the samples, which were frozen in situ in monolayers in standard 96-well tissue culture plates. […] A mitochondrial-mediated apoptotic inhibitor (Caspase 9) and a membrane-mediated apoptotic inhibitor (Caspase 8) were investigated to evaluate the involvement and impact of modulation of various apoptotic induction pathways. Additionally, a pan-Caspase inhibitor (Cas IV) was also investigated to assess the impact of global pathway modulation. As with the viability studies, cell survival and repopulation were assessed using Calcein-AM assays and analyzed using fluorescent microscopy (Zeiss). Survival was determined at 24 hours post-thaw to allow for the manifestation of any delayed onset cell death pathways to be executed. Further, cell recovery was included to evaluate the long term potency and repopulation potential of the various samples. […]

[2] = system: human smooth muscle cells; assay: Human smooth muscle cell monolayer survival and repopulation following cryopreservation (Calcein-AM assay); assay type: cell-based
Experimental: as §1
The study described in example 3.1 focuses on the collection of cell survival data and the impact of post-thaw conditioning on human smooth muscle cells (SMCs). Specific activities included application of the high throughput monolayer sample cryopreservation protocol and collection of data (survival and cell death) from samples frozen using 6 unique cryopreservation solutions (U5, U10, U20, U5G10, U10G10, DP6) and 6 unique modulators (resveratrol, salubrinal, caspase inhibitors (IV, 8, 9) and NAC). Survival was determined at 24 hours post-thaw to allow for the manifestation of any delayed onset cell death pathways to be executed. Further, cell recovery was included to evaluate the long term potency and repopulation potential of the various samples.
A series of experiments was conducted to evaluate the performance of several solutions (U5, U10, U20, U5G10, U10G10 and DP6) as well as the impact of pre-freeze (PF) and post-warming (PW) conditioning with the apoptotic inhibitors Caspase 8, Caspase 9 and Caspase IV inhibitors. Cell samples were processed using the monolayer CP protocol and analyzed following 24 hours to 7 days post thaw for survival and recovery. These experiments were conducted to evaluate the impact of molecular modulators (inhibitors) during pre-freeze or post-thaw recovery on cell survival when added to the media 1 hour prior to or 24 hour following cryopreservation. […] To this end, samples were probed with Calcein-AM, incubated for 30 mins in the dark and then imaged using a Zeiss Axiovert 200 fluorescence microscope and Axiovision software. Images were taken at 24 hours to 7 days post-thaw to allow for assessment of solution and post-thaw conditioning agent performance.
As in previous experiments, the 24 hour time point was used for initial survival assessment, as this time point allows for the manifestation of molecular based cell stress-induced death. This provides a more accurate measure of survival than 0 or 1 hour post-thaw assessment, as is typically used. The 3 day time point was selected to assess re-population potential of any surviving cells as an indicator of long term potency.
For smooth muscle cell pre-freeze (PF) conditioning studies, 1 hour prior to CP addition, culture media was decanted and 100 μL of fresh media supplemented with caspase 8, 9, or IV was added to each respective well. Samples were then incubated at 37° C. for 1 hour, followed by media removal and addition of 100 μL of CP solution to samples followed by cryopreservation as described above. Following preservation, samples were thawed, diluted, and placed into culture. Following 24 hours recovery, cell viability was assessed.
For smooth muscle cell post-warming (PW) conditioning studies, following thawing and cryopreservation, CP solution was removed or diluted with culture media supplemented with caspase 8, 9, or IV. FIG. 18 illustrates the impact of apoptotic inhibition post-freeze conditioning on human smooth muscle cell survival 1 day following cryopreservation with and without reduced CPA.
For P/P conditioning studies, 1 hour prior to CP addition, culture media was decanted and 100 μL of fresh media supplement with caspase 8, 9, or IV was added to each respective well.

[3] = system: human hematopoietic stem cells (hHSC); assay: Human hematopoietic stem cell survival following cryopreservation (Calcein-AM assay); assay type: cell-based; conditions: cryopreserved in DMSO 10%
Experimental: The studies described in example 4 focus on the collection of cell survival data and the impact of post-thaw conditioning on human stem cells (hHSCs). Specific activities included standard cryopreservation protocol and collection of data (survival and cell death) from samples frozen using 6 unique cryopreservation solutions (Media, M5, M10, Unisol, U5 and U10) and 4 unique modulators (resveratrol (OSI), salubrinal (UPRI), caspase inhibitor (AI) and NAC). Survival was determined at 24 hours post-thaw to allow for the manifestation of any delayed onset cell death pathways to be executed. […]
A series of experiments was conducted to evaluate the performance of several solutions (media, M5, M10, Unisol, U5, and U10) as well as the impact of post-warming (PW) conditioning with the molecular modulators. Cell samples were processed using a standard controlled rate cooling suspension protocol and analyzed following 24 hours to 7 days post thaw for survival and recovery. […] To this end, samples were probed with Calcein-AM, incubated for 30 mins in the dark and then imaged using a Zeiss Axiovert 200 fluorescence microscope and Axiovision software. […]
For hHSC post-warming (PW) conditioning studies, following thawing each sample was diluted with culture media supplemented with the respective molecular modulator added to the dilution media. Samples were incubated in culture for 24 hours, then assessed. […]

[4] = PF and PW caspase inhibitor conditioning, U10G10 solution
[5] = PF conditioning, U10, U20, U5G10 and U10G10
[6] = P/P conditioning, vs non-conditioned samples

With CC[C@H](C)[C@H](NC(=O)OCc1ccccc1)C(=O)N[C@@H](CCC(=O)OC)C(=O)N[C@H](C(=O)N[C@@H](CC(=O)OC)C(=O)CF)[C@@H](C)O [Caspase 8 inhibitor] (Cbz-IE(OMe)TD(OMe)-CH2F) the “day 1 post-thaw cell survival and cell recovery” value ([1]; PF, PW and P/P conditioning, Unisol based solutions) was “improved”, the “increase in cell survival over non-treated samples” value ([1]; PW conditioning) was roughly 50% and the “increase in survival over non-treated samples” value ([1]; U10G10, P/P conditioning, day 1) was greater than 2 fold. The “day 1 cell survival / post-thaw viability” value (human endothelial cells; P/P caspase inhibitor conditioning, Unisol+CPA samples vs non-treated matched samples) was “improvement in cell survival”, the “cell repopulation / day 3 recovery” value (human endothelial cells; P/P caspase inhibitor conditioning, Unisol+CPA solutions and DP6) was “most beneficial; also recorded: marked improvement in all solutions in day 3 recovery” and the “cell recovery and repopulation (overall)” value (human endothelial cells; [4]) was “improvement in cell recovery and repopulation”. The “recovery at 3 days post-thaw” value (human endothelial cells; PF caspase inhibitor conditioning, Unisol+CPA conditions) was “improvement in recovery”, the “day 3 recovery” value (human endothelial cells; PW caspase inhibitor conditioning, U10, U20 and U5G10 vs non-treated) was “marked improvement in day 3 recovery” and the “cell recovery 3 days post-thaw” value (human endothelial cells; PW caspase inhibitor conditioning, Unisol+CPA conditions) was “improvement in cell recovery”. For the same compound, the “day 1 cell survival” value (human endothelial cells; post-warming (PW) caspase inhibitor conditioning 24 hours, Unisol+CPA solutions, vs non-treated matched samples) was “overall increase in cell survival”, the “day 1 cell survival” value (human endothelial cells; post-warming (PW) caspase inhibitor conditioning 24 hours, Unisol+CPA solutions, vs non-treated matched samples, listed as Caspase 8) was “slight improvement in cell survival” and the cell survival (human endothelial cells; pre/post (P/P) caspase inhibitor conditioning, U10G10 solution, day 1) was roughly 90%. The “increase over non-treated U10G10 samples” value ([2]; P/P caspase inhibitor conditioning, U10G10, day 1 survival) was roughly 50%, the “day 1 survival, % of controls” value ([2]; P/P caspase inhibitor conditioning, U10G10, listed as Caspase 8) was roughly 60% and the “day 1 survival, % of controls” value ([2]; P/P caspase inhibitor conditioning, U10G10, listed as caspase 8) was “about 70%”. The “day 1 survival, % of controls” value ([2]; P/P caspase inhibitor conditioning, U10G10, listed as caspase 8 inhibitor) was roughly 70%, the “cell repopulation / day 3 recovery” value ([2]; P/P caspase inhibitor conditioning, Unisol+CPA conditions and DP6) was “marked improvement in day 3 recovery” and the “smooth muscle cell recovery and repopulation (overall)” value [2, 4] was “improvement in smooth muscle cell recovery and repopulation”. The “recovery at 3 days post-thaw” value ([2]; PW caspase inhibitor conditioning) was “complete recovery of the samples to pre-freeze controls” and the “day 1 cell survival” value ([2]; PW caspase inhibitor conditioning, Unisol+CPA solutions) was “slight increase in cell survival”.
With C[S+](C)[O-] [DMSO, dimethyl sulfoxide] the cell loss rates [3] was “greater than 50%”.
With Oc1ccc(C=Cc2cc(O)cc(O)c2)cc1 [resveratrol] the post-thaw viability (human endothelial cells) was “increase in post-thaw viability”, the “day 1 survival increase over non-treated samples” value (human endothelial cells; PF conditioning 1 hour) was roughly 2 fold and the “day 1 cell survival” value (human endothelial cells; [5]) was “Improvement”. For the same compound, the “day 1 survival increase over non-treated samples” value (human endothelial cells; PW conditioning 24 hours) was roughly 2 fold and the “day 1 cell survival” value [2, 6] was “slight to no improvement in cell survival”.
With O=C(/C=C/c1ccccc1)NC(NC(=S)Nc1cccc2cccnc12)C(Cl)(Cl)Cl (stereo not drawn) [salubrinal] the post-thaw viability (human endothelial cells) was “increase in post-thaw viability”, the “day 1 cell survival” value (human endothelial cells; [5]) was “Improvement” and the “day 1 cell survival” value [2, 6] was “slight to no improvement in cell survival”. For the same compound, the “day 1 cell survival” value ([2]; PW conditioning, vs non-treated matched samples) was “minimal benefit”.
